Tests used:
[1] = Cell growth assay (WST-8) (Compounds B1-B278); type: cell-based; conditions: 96 h; T47D cell line; WST-8, 4 days; read-out: Cell Growth Inhibition in T47D cell line IC50
Summary of the method: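 Cells seeded at 1500/well overnight, treated one day later with compound doses for 4 days, then 10% WST-8 added for 2.5 h at 37° C in CO2. Absorbance at 450 nm, expressed relative to vehicle control over three independent repeats.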

ER = ER (Homo sapiens (Human), UniProt P03372); assay: In-cell western blot analysis of relative ER percentage (Compounds B1-B278); type: cell-based; conditions: ER degradation, 16 hours, read-out: ICW DC50
Summary of the method: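 Cells seeded at 40,000 or 10,000 cells/well and treated with compound (final 0.5% DMSO) for 16 h, then formaldehyde-fixed, Triton-permeabilized and co-stained for ER and GAPDH with 680/800 secondaries; LI-COR plate read. ER level expressed relative to untreated/DMSO-treated wells set at 100%.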

Chain of ER (P03372 whole entry): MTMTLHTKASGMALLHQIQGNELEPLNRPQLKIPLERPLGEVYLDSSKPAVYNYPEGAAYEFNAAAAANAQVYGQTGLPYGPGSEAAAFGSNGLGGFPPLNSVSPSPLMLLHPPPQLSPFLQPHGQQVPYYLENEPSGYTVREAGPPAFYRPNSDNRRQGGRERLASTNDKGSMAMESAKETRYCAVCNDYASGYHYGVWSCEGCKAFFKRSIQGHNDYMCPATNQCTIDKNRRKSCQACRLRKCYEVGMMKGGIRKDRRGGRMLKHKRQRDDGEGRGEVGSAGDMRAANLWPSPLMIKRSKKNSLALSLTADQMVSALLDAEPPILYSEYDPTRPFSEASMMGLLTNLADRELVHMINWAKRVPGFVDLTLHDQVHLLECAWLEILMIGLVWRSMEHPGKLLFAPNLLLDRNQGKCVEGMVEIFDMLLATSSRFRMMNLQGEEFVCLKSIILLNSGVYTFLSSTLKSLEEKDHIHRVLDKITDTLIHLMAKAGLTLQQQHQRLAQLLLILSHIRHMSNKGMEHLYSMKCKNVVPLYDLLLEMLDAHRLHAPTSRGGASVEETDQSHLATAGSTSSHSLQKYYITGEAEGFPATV

| DC50 (ER) | SMILES | IC50 [1] |
| --- | --- | --- |
| > 100 nM | COc1cc(N2CCC3(CCN(C(=O)CN4Cc5cc6c(cc5C4)C(=O)N(C4CCC(=O)NC4=O)C6=O)CC3)CC2)ccc1[C@@H]1c2[nH]c3ccccc3c2C[C@@H](C)N1CC(C)(C)F (stereo partly drawn) [Compound B170, 2-(2,6-dioxopiperidin-3-yl)-6-(2-(9-(4-((1R,3R)-2-(2-fluoro-2-methylpropyl)-3-methyl-2,3,4,9-tetrahydro-1H-pyrido[3,4-b]indol-1-yl)-3-methoxyphenyl)-3,9-diazaspiro[5.5]undecan-3-yl)-2-oxoethyl)-6,7-dihydropyrrolo[3,4-f]isoindole-1,3(2H,5H)-dione] | 1 to 10 nM |
| > 100 nM | C[C@@H]1Cc2c([nH]c3ccccc23)[C@@H](c2cnc(N3CC4(CCC(N5CCN6c7ccc8c(c7OC[C@H]6C5)CN(C5CCC(=O)NC5=O)C8=O)CC4)C3)nc2)N1CC(F)F (stereo partly drawn) [Compound B156, 3-((R)-7-(2-(5-((1R,3R)-2-(2,2-difluoroethyl)-3-methyl-2,3,4,9-tetrahydro-1H-pyrido[3,4-b]indol-1-yl)pyrimidin-2-yl)-2-azaspiro[3.5]nonan-7-yl)-1-oxo-1,3,5,5a,6,7,8,9-octahydro-2H-pyrazino[1′,2′:4,5][1,4]oxazino[2,3-e]isoindol-2-yl)piperidine-2,6-dione] | > 10 nM |
| < 10 nM | C[C@@H]1Cc2c([nH]c3ccccc23)[C@@H](c2cnc(N3CC4(CCC(CN5CCN6c7ccc8c(c7OC[C@H]6C5)CN(C5CCC(=O)NC5=O)C8=O)CC4)C3)nc2)N1CC(F)F (stereo partly drawn) [Compound B183, 3-((R)-7-((2-(5-((1R,3R)-2-(2,2-difluoroethyl)-3-methyl-2,3,4,9-tetrahydro-1H-pyrido[3,4-b]indol-1-yl)pyrimidin-2-yl)-2-azaspiro[3.5]nonan-7-yl)methyl)-1-oxo-1,3,5,5a,6,7,8,9-octahydro-2H-pyrazino[1′,2′:4,5][1,4]oxazino[2,3-e]isoindol-2-yl)piperidine-2,6-dione] | 1 to 10 nM |
| 10 to 100 nM | C[C@@H]1Cc2c([nH]c3ccccc23)[C@@H](c2ccc(N3CCC4(CC3)CC(CN3CCN5c6ccc7c(c6OC[C@H]5C3)CN([C@H]3CCC(=O)NC3=O)C7=O)CO4)cn2)N1CC(F)(F)F (stereo partly drawn) [Compound B146, (3S)-3-((5aR)-7-((8-(6-((1S,3R)-3-methyl-2-(2,2,2-trifluoroethyl)-2,3,4,9-tetrahydro-1H-pyrido[3,4-b]indol-1-yl)pyridin-3-yl)-1-oxa-8-azaspiro[4.5]decan-3-yl)methyl)-1-oxo-1,3,5,5a,6,7,8,9-octahydro-2H-pyrazino[1′,2′:4,5][1,4]oxazino[2,3-e]isoindol-2-yl)piperidine-2,6-dione] | 1 to 10 nM |

| SMILES | DC50 (ER) | IC50 [1] |
| --- | --- | --- |
| C[C@@H]1Cc2c([nH]c3ccccc23)[C@@H](c2ccc(N3CCC4(CC3)CC(CN3CCC5(CC3)COc3c5ccc5c3CN(C3CCC(=O)NC3=O)C5=O)CO4)cn2)N1CC(F)(F)F (stereo partly drawn) [Compound B145, 3-(1′-((8-(6-((1S,3R)-3-methyl-2-(2,2,2-trifluoroethyl)-2,3,4,9-tetrahydro-1H-pyrido[3,4-b]indol-1-yl)pyridin-3-yl)-1-oxa-8-azaspiro[4.5]decan-3-yl)methyl)-6-oxo-6,8-dihydro-2H,7H-spiro[furo[2,3-e]isoindole-3,4′-piperidin]-7-yl)piperidine-2,6-dionc] | < 10 nM | < 1 nM |
| COc1cc(N2CCC3(CC2)CC(CN2CCC4(CC2)COc2c4ccc4c2CN(C2CCC(=O)NC2=O)C4=O)C3)ccc1[C@@H]1c2[nH]c3ccccc3c2C[C@@H](C)N1CC(F)F (stereo partly drawn) [Compound B140, 3-(1′-((7-(4-((1R,3R)-2-(2,2-difluoroethyl)-3-methyl-2,3,4,9-tetrahydro-1H-pyrido[3,4-b]indol-1-yl)-3-methoxyphenyl)-7-azaspiro[3.5]nonan-2-yl)methyl)-6-oxo-6,8-dihydro-2H,7H-spiro[furo[2,3-e]isoindole-3,4′-piperidin]-7-yl)piperidine-2,6-dione] | < 10 nM | < 1 nM |
